Results: patent US10770169B2, “Method of providing a treatment to a subject based on a dynamic pathway map” (THE REGENTS OF THE UNIVERSITY OF CALIFORNIA, priority 2010, dated 2020)
Read-outs that look alike come from different tables or passages of the source.

Key:
[1] = system: panel of 55 breast cancer cell lines; assay: Cell growth inhibition assay (Cell Titer Glo, 72 h, 9 doses; GI50, TGI, LC50); type: cell-based, human; conditions: Homo sapiens, read-out: GI50 (converted)
[2] = system: luminal, basal, claudin-low and ERBB2AMP breast cancer cell lines; assay: Associations of clinically relevant subtypes and response (non-parametric ANOVA or t-test on GI50 ranks); type: cell-based, human
Description: A central premise of this study is that associations between responses and molecular subtypes observed in preclinical cell line analyses will be recapitulated in the clinic in instances where the predictive molecular features in the cell lines are mirrored in human tumors. We established response-subtype associations by using non-parametric ANOVAs to compare […] values across transcriptional and genomics subtypes.
Differences between GI50s of the groups were compared with a non-parametric ANOVA or t-test, as appropriate, on the ranks. We combined the p-values for the three sets of tests and used false discovery rate (FDR) to correct for multiple testing. For the three-sample test, we performed a post-hoc analysis on the compounds with a significant class effect by comparing each group to all others to determine which group was most sensitive. The p-values for the post-hoc test were FDR-corrected together. In all cases, FDR p<0.20 was deemed significant. […] Analyses were performed in R.

CN(C)C/C=C/C(=O)Nc1cc2c(Nc3ccc(F)c(Cl)c3)ncnc2cc1O[C@H]1CCOC1 [BIBW 2992]
GI50 ([1]; BT-20, BT20 cell line, censored GI50 values): 2750 nM
GI50 ([1]; BT-20, cell line BT20): 2750 nM
GI50 ([1]; BT-474, BT474 cell line, censored GI50 values): 5.89 nM
GI50 ([1]; BT-474, cell line BT474): 5.89 nM
GI50 ([1]; BT-483, BT483 cell line, censored GI50 values): 1660 nM
GI50 ([1]; BT-483, cell line BT483): 1660 nM
GI50 ([1]; CAMA-1, CAMA1 cell line, censored GI50 values): 2240 nM
GI50 ([1]; CAMA-1, cell line CAMA1): 2240 nM
GI50 ([1]; HCC38, HCC38 cell line, censored GI50 values): 1820 nM
GI50 ([1]; HCC38, cell line HCC38): 1820 nM
GI50 ([1]; HCC70, HCC70 cell line, censored GI50 values): 468 nM
GI50 ([1]; HCC70, cell line HCC70): 468 nM
GI50 ([1]; HCC1143, HCC1143 cell line, censored GI50 values): 1380 nM
GI50 ([1]; HCC1143, cell line HCC1143): 1380 nM
GI50 ([1]; HCC1419, HCC1419 cell line, censored GI50 values): 2.95 nM
GI50 ([1]; HCC1419, cell line HCC1419): 2.95 nM
GI50 ([1]; HCC1428, HCC1428 cell line, censored GI50 values): 1740 nM
GI50 ([1]; HCC1428, cell line HCC1428): 1740 nM
GI50 ([1]; HCC1500, HCC1500 cell line, censored GI50 values): 339 nM
GI50 ([1]; HCC1500, cell line HCC1500): 339 nM
GI50 ([1]; HCC1806, HCC1806 cell line, censored GI50 values): 537 nM
GI50 ([1]; HCC1806, cell line HCC1806): 537 nM
GI50 ([1]; HCC1937, HCC1937 cell line, censored GI50 values): 2090 nM
GI50 ([1]; HCC1937, cell line HCC1937): 2090 nM
GI50 ([1]; HCC1954, HCC1954 cell line, censored GI50 values): 123 nM
GI50 ([1]; HCC1954, cell line HCC1954): 123 nM
GI50 ([1]; HCC2185 cell line, censored GI50 values): 1380 nM
GI50 ([1]; MDA-MB-134-VI, MDAMB134VI cell line, censored GI50 values): 3630 nM
GI50 ([1]; MDA-MB-175-VII, MDAMB175VII cell line, censored GI50 values): 4.47 nM
GI50 ([1]; MDA-MB-436, MDAMB436 cell line, censored GI50 values): 3720 nM
GI50 ([1]; MDA-MB-436, cell line MDAMB436): 3720 nM
GI50 ([1]; MDA-MB-453, MDAMB453 cell line, censored GI50 values): 91.2 nM
GI50 ([1]; MDA-MB-453, cell line MDAMB453): 91.2 nM
GI50 ([1]; MDA-MB-468, MDAMB468 cell line, censored GI50 values): 631 nM
GI50 ([1]; MDA-MB-468, cell line MDAMB468): 631 nM
GI50 ([1]; SK-BR-3, SKBR3 cell line, censored GI50 values): 13.2 nM
GI50 ([1]; SK-BR-3, cell line SKBR3): 13.2 nM
GI50 ([1]; SUM52PE, SUM52PE cell line, censored GI50 values): 3390 nM
GI50 ([1]; SUM52PE, cell line SUM52PE): 3390 nM
GI50 ([1]; SUM149PT, SUM149PT cell line, censored GI50 values): 74.1 nM
GI50 ([1]; SUM149PT, cell line SUM149PT): 74.1 nM
GI50 ([1]; SUM185PE, SUM185PE cell line, censored GI50 values): 5620 nM
GI50 ([1]; SUM185PE, cell line SUM185PE): 5620 nM
GI50 ([1]; SUM225CWN, SUM225CWN cell line, censored GI50 values): 9.33 nM
GI50 ([1]; SUM225CWN, cell line SUM225CWN): 9.33 nM
GI50 ([1]; SUM1315MO2, SUM1315MO2 cell line, censored GI50 values): 162 nM
GI50 ([1]; SUM-159-PT, SUM159PT cell line, censored GI50 values): 2570 nM
GI50 ([1]; SUM-159-PT, cell line SUM159PT): 2570 nM
GI50 ([1]; UACC-812, UACC812 cell line, censored GI50 values): 2.82 nM
GI50 ([1]; UACC-812, cell line UACC812): 2.82 nM
GI50 ([1]; ZR-75-1, ZR751 cell line, censored GI50 values): 2340 nM
GI50 ([1]; ZR-75-1, cell line ZR751): 2340 nM
GI50 ([1]; ZR-75B, ZR75B cell line, censored GI50 values): 3020 nM
GI50 ([1]; ZR-75B, cell line ZR75B): 3020 nM
GI50 ([1]; cell line HCC2185): 1380 nM
GI50 ([1]; cell line MDAMB134V): 3630 nM
GI50 ([1]; cell line MDAMB175V): 4.47 nM
GI50 ([1]; cell line SUM1315MO): 162 nM
association of response with ERBB2 amplification [2]: positively associated with ERBB2 amplification
Subtype specificity ([2]; Table 6, most sensitive subtype, FDR p<0.20): ERBB2AMP
